Laboratory results published in article PMC4514850, “A Novel TGR5 Activator WB403 Promotes GLP-1 Secretion and Preserves Pancreatic β-Cells in Type 2 Diabetic Mice” (PLoS ONE, 2015).
Entries after “also recorded” stand apart in the source; their conditions may differ.

Legend:
[1] = molecular target: T1, hGPR40 (Homo sapiens, UniProt O14842); assay: GPR40-dependent calcium mobilization in 293-GPR40 stable cells; assay type: cell-based; conditions: 5, 10, 50 μmol/l
T1 construct: expressed in transfected cells
Description: (§1) For human TGR5 luciferase (luc) assay, 293T cells were co-transfected with pCRE-luc, pTGR5 (kind gift from Prof. Johan Auwerx, Ecole Polytechnique Fédérale de Lausanne, Lausanne, Switzerland) and pRenilla (Promega, USA). WB403 was added 5 h later. Cells were harvested after 16 h and subjected to luciferase analysis on Lumistar Optima chemiluminescent detector (BMG labtech, Germany). For cAMP testing, 293T cells transiently transfected with pTGR5 or pGPR119 (GeneCopoeia, USA) were washed by FBS-free DMEM, and stimulated with WB403 in FBS-free DMEM containing 3-isobutyl-1-methyl-xanthine (IBMX, Sigma). Cell lysates were collected 30 min later and used for cAMP ELISA assay. FLIPR Calcium 5 assay kit (Molecular Devices, USA) was used for calcium mobilization assay. 293-GPR40 stable cells (kindly provided by Prof. Naiming Zhou of Zhejiang University, Hanzhou, China) or 293 cells transient transfected with GPR120 were seeded at 50,000 cells per well in black-walled clear-bottomed 96-well plates (Costar). An equal volume of loading buffer containing Fluo 4-AM was added the following day and cells were incubated for 1 h before stimulated with compounds. Increase of the intracellular Ca^2+ concentration was monitored by Flexstation 3 system (Molecular Devices, USA).
(§2) Fig 6 Effect of WB403 on GPCRs related to GLP-1 secretion. (A) GPCR expression in human NCI-H716 and mouse MIN6 cells. […]

[2] = molecular target: T2, hGPR120 (Homo sapiens, UniProt Q5NUL3); assay: GPR120-dependent calcium mobilization in transfected 293 cells; assay type: cell-based; conditions: 10 or 100 μmol/l
T2 construct: expressed in transfected cells; host or cells: 293 cells, transient transfection with a human GPR120 expression vector
T2 sequence (Q5NUL3 1-361): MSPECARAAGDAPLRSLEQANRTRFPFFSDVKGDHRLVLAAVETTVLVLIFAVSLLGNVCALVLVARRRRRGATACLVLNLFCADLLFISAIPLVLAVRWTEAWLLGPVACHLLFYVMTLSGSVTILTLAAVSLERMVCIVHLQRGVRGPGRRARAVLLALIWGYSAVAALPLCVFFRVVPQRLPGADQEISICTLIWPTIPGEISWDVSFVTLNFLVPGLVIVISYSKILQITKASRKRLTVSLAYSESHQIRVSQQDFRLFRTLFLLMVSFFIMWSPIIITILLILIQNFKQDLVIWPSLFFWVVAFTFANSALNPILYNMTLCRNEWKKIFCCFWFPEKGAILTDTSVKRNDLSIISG
Description: as §1, §2

[3] = test system: normal mice; assay: 4-week treatment of normal mice (hypoglycemia risk); assay type: in vivo; conditions: 100 mg/kg, 4 weeks
Description: Mice were treated for 4 weeks by WB403 and sitagliptin at 100 mg/kg. Glibenclamide at 2.5 mg/kg was used as positive control for hypoglycemia. FBG (A) and PBG (B) were measured every week. Values are mean ± SD (n = 10). *p<0.05, **p<0.01 vs. vehicle group. (TIF) Click here for additional data file.

[4] = molecular target: T3, hTGR5 (Homo sapiens, UniProt Q8TDU6); assay: TGR5-dependent cAMP accumulation (ELISA) in transfected 293T cells; assay type: cell-based
T3 construct: expressed in transfected cells; host or cells: 293T cells, transient transfection with pTGR5 (gift from Prof. Johan Auwerx)
T3 sequence (Q8TDU6 1-330): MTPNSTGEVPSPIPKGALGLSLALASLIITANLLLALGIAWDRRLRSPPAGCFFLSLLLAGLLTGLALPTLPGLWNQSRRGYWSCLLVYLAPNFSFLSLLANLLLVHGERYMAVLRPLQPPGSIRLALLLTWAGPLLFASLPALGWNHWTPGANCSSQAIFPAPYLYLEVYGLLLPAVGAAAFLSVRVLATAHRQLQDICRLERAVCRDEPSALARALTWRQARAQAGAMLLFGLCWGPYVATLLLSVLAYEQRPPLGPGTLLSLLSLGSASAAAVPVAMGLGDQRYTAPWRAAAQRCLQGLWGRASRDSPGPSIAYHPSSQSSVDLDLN
Description: as §1, with “293-GPR40 stable cells (kindly provided by Prof. Naiming Zhou of Zhejiang University, Hanzhou, China) or 293 cells transient transfected with GPR120 were seeded at 50,000 cells per well in black-walled clear-bottomed 96-well plates (Costar). An equal volume of loading buffer containing Fluo 4-AM was added the following day and cells were incubated for 1 h before stimulated with compounds.” left out
The GLP-1 (active) ELISA kit was purchased from Millipore, and insulin ELISA kit was from Mercodia. For quantitative determination of cAMP, a competitive enzyme immunoassay kit from R&D system was used. […]
Fig 1 WB403 activated TGR5 and promoted active GLP-1 secretion. […] Gallbladders (GB) were removed 30 min later and volumes measured then normalized to body weight (B.W.). n = 10. **p<0.01 vs. vehicle group. […]

T1 sequence (O14842 whole entry): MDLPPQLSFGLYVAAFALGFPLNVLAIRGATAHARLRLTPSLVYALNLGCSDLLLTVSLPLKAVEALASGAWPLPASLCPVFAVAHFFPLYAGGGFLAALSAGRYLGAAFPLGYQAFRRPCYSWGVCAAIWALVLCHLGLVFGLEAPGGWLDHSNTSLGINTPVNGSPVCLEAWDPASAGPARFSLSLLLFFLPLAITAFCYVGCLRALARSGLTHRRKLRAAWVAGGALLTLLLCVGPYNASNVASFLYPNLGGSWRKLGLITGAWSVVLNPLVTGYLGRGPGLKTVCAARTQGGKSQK

CCc1cc(-c2nc(C)c(COCc3ccc(Br)cc3)s2)ccn1 [WB403, 4-(5-((4-bromobenzyloxy)-methyl)-4-methylthiazol-2-yl)-2-ethylpyridine]
hGPR40-Ca2+ activation (calcium mobilization) [1]: neither did it exhibit significant effect; also recorded: no significant effect
hGPR120-Ca2+ activation (calcium mobilization) [2]: neither did it exhibit significant effect; also recorded: no significant effect
FBG lowering in normal mice [3]: did not cause significant FBG and PBG lowering
PBG lowering in normal mice [3]: did not cause significant FBG and PBG lowering
Gs-coupled cAMP accumulation through TGR5 ([4]; 1–50 μmol/l, 30 min, IBMX, Fig 1B): dose-dependently stimulate
cAMP activity in control 293T cells ([4]; control 293T cells transfected with an empty plasmid): no stimulation
